Data as given in patent US7704971B2, “Uracil reductase inactivators” (SmithKlineBeecham Corporation, priority 1990, dated 2010).
Where two headings read alike, the source gives them in different places. Marks after values point to notes of the source that are not given here.

Key:
[1] = biological target: T1, Uracil reductase (dihydropyrimidine dehydrogenase, EC 1.3.1.2) (Bos taurus, UniProt Q28007); assay: Determination of uracil reductase inactivation; assay type: biochemical, bovine; conditions: for relative first-order rate constants for inactivation of enzyme (parenthetical values): 50 micromol inactivator, fractional activity vs time of incubation; for inhibition at 100 µM: 0.5 h
T1 construct: purified from bovine liver; from tissue; host or cells: bovine liver
T1 sequence (Q28007 1-1025): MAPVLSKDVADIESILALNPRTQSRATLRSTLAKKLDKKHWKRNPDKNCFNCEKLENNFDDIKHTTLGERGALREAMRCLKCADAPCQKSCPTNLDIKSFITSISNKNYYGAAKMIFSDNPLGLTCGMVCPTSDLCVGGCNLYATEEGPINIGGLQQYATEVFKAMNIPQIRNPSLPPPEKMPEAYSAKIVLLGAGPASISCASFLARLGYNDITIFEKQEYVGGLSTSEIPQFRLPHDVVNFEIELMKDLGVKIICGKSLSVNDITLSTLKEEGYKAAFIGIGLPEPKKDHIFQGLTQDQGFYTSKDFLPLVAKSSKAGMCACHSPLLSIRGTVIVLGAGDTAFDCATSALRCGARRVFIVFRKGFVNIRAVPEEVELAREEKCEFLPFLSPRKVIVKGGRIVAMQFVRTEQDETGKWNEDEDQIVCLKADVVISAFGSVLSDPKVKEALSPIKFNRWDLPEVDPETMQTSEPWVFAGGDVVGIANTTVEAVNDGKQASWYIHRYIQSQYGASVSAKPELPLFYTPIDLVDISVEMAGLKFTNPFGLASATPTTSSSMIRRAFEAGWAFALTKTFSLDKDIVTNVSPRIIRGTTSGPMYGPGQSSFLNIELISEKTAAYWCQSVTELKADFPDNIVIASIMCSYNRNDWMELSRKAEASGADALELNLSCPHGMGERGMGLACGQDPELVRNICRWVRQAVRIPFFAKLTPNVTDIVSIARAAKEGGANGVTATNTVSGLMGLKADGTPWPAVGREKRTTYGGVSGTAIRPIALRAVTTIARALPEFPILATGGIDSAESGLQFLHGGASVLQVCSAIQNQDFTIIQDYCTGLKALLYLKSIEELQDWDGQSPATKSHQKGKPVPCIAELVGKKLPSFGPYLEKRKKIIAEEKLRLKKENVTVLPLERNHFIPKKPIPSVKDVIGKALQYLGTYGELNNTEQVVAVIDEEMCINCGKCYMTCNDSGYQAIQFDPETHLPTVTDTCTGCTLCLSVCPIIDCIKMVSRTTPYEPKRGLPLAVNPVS
Protocol: Uracil reductase (1 micromolar) (dihydropyrimidine dehydrogenase, EC 1.3.1.2) purified from bovine liver was incubated with 100 micromolar inactivator and 5 mM dithiothreitol (enzyme reductant) at 37° for 30 minutes in 0.05 M Tris-HCl at pH 8.0. The enzyme and inactivator were diluted 100-fold into the assay buffer, which contained 200 micromolar NADPH, 200 micromolar thymine and 1 mM dithiothreitol in Tris-HCl at pH 8.0. The velocity of the enzyme was determined spectrophotometrically. These velocities have been corrected for NADPH oxidase activity, which was less than […] of the rate of thymine-dependent oxidation of NADPH. The % inactivation of the enzyme was equal to 100% minus the percent of enzymatic activity remaining. Enzyme incubated without inhibitor was stable under these conditions. Parenthetical values are the relative first-order rate constants for inactivation of enzyme determined from similar experiments where the fractional activity was measured as a function of the time of incubation of 50 micromol inactivator with enzyme.

[2] = biological target: T2, dihydrothymidine dehydrogenase (Homo sapiens, UniProt Q12882); conditions: Cancer Research 46, 1094, 1986; cited from earlier work
T2 sequence (Q12882 4-1025): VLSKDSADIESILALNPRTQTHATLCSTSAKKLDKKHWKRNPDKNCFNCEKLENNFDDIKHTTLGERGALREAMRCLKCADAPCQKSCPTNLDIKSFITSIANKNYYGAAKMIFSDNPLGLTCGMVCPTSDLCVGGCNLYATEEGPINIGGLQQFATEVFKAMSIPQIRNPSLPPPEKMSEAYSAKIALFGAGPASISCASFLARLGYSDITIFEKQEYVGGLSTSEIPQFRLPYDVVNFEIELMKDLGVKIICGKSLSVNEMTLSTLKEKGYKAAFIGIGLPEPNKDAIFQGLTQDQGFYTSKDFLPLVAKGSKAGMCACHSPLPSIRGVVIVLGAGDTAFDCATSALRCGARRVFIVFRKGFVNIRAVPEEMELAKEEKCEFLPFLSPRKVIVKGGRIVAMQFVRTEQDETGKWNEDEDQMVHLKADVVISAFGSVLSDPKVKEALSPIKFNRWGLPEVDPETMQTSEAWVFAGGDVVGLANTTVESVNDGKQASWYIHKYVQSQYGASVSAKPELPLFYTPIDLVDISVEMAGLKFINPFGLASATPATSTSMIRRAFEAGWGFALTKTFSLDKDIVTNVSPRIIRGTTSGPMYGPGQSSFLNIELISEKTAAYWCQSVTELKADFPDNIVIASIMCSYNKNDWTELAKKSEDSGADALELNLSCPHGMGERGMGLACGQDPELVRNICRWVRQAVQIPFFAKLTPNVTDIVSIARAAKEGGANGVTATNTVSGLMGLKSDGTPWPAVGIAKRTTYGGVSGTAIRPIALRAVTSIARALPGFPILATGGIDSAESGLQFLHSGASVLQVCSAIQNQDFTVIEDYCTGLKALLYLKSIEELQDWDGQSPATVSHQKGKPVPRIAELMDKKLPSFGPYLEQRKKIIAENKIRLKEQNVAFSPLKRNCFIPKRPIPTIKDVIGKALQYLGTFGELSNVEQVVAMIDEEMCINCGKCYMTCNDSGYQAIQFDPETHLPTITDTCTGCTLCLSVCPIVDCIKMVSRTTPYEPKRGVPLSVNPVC

[3] = in vivo; cited from earlier work
Colon 38 tumor = assay: Potentiation of the antitumor activity of 5-FU by EU, Colon 38 tumor in mice; assay type: in vivo
Protocol: Colon 38 tumor was implanted in mice on day zero. Mice (8 per group) were treated with 5-FU on days one through nine with the doses indicated in Table 2 EU was dosed i.p. at 2 mg/kg 30 minutes prior to 5-FU dosing where indicated.

[4] = 100 micromolar inactivator, 1 micromolar enzyme, 5 mM dithiothreitol, 37° for 30 minutes, pH 8.0, read-out: % Inactivation

SMILES	relative first-order rate constants for inactivation of enzyme (parenthetical values) [1]	inhibition at 100 µM [1, 4] [%]	further results
N#Cc1c[nH]c(=O)[nH]c1=O [5-cyanouracil]	(14)	100	
CC#Cc1c[nH]c(=O)[nH]c1=O [5-propynyluracil, 5-Propynyluracil]	(8)	100	melting point: 275 to 280 °C (dec.)
O=c1[nH]cc(C=CBr)c(=O)[nH]1 [BVU, 5-(2-bromovinyl)-uracil]			inhibition of dihydrothymidine dehydrogenase [2]: is an inhibitor; toxicity to humans [3]: toxic to humans
O=c1[nH]cc(C#CBr)c(=O)[nH]1 [5-bromoethynyluracil]	(8)	100	
O=c1[nH]cc(F)c(=O)[nH]1 [FU, 5-fluorouracil]			% Mice Tumor Free on Day 17 (Colon 38 tumor; 5-FU 10 mg/kg i.p. days 1-9, no EU): 0%; % Mice Tumor Free on Day 17 (Colon 38 tumor; 5-FU 10 mg/kg p.o. days 1-9, no EU): 0%; % Mice Tumor Free on Day 17 (Colon 38 tumor; 5-FU 15 mg/kg i.p. days 1-9, no EU): 12.5%; % Mice Tumor Free on Day 17 (Colon 38 tumor; 5-FU 15 mg/kg p.o. days 1-9, no EU): 12.5%; % Mice Tumor Free on Day 17 (Colon 38 tumor; 5-FU 20 mg/kg i.p. days 1-9, no EU): 12.5%; % Mice Tumor Free on Day 17 (Colon 38 tumor; 5-FU 20 mg/kg p.o. days 1-9, no EU): 12.5%; % Mice Tumor Free on Day 17 (Colon 38 tumor; 5-FU 25 mg/kg p.o. days 1-9, no EU): 12.5%; % Mice Tumor Free on Day 17 (Colon 38 tumor; 5-FU 30 mg/kg i.p. days 1-9, no EU): 87.5^a %; % Mice Tumor Free on Day 17 (Colon 38 tumor; 5-FU 30 mg/kg p.o. days 1-9, no EU): 12.5%
C=C(Cl)c1c[nH]c(=O)[nH]c1=O [5-(1-chlorovinyl)uracil]	(5)	100	
C=Cc1c[nH]c(=O)[nH]c1=O [5-vinyluracil]		86	
O=c1[nH]cc(C(F)(F)F)c(=O)[nH]1 [5-trifluoromethyluracil]		75	
O=c1[nH]cc(I)c(=O)[nH]1 [Example 5-iodouracil, 5-iodouracil]	(4)	100	
O=c1[nH]cc(Br)c(=O)[nH]1 [5-bromouracil]			inhibition at 100 µM ([1]; pH 8, read-out: % Inactivation): 75%
CCCCC#Cc1c[nH]c(=O)[nH]c1=O [5-hex-1-ynyluracil]		90	
